Test results reported in patent US20260022142A1, “MACROCYCLIC IMMUNOMODULATORS” (Bristol-Myers Squibb Company, priority 2022, published 2026).
Bridge positions count the residues as written; N and C are the ends. Square brackets hold non-standard residues; d marks the D form. Peptide text beside a SMILES is read from it. * marks the point of attachment. ξ: configuration not given here. Bip = N[C@@H](Cc1ccc(-c2ccccc2)cc1)C(=O)O; Phe(3-Me) = Cc1cccc(C[C@H](N)C(=O)O)c1; hArg = N=C(N)NCCCC[C@H](N)C(=O)O; 3Thi = N[C@@H](Cc1ccsc1)C(=O)O; Cha = N[C@@H](CC1CCCCC1)C(=O)O; Cit = NC(=O)NCCC[C@H](N)C(=O)O; Thr(3ξ) = CC(O)[C@H](N)C(=O)O; 12Ado = NCCCCCCCCCCCC(=O)O; Carboxymethyl = O=C(O)C*; Orn = NCCC[C@H](N)C(=O)O; Aun = NCCCCCCCCCCC(=O)O; Dab = NCC[C@H](N)C(=O)O; Dap = NC[C@H](N)C(=O)O; Piv = CC(C)(C)C(=O)*

Biological target: T1, PD-1/PD-L1 interaction (PE-labeled human PD-L1-Ig binding to Jurkat cell line over-expressing human PD-1) (Homo sapiens, UniProt Q15116)
T1 construct: expressed in transfected cells; host or cells: Jurkat
T1 sequence (Q15116 25-288): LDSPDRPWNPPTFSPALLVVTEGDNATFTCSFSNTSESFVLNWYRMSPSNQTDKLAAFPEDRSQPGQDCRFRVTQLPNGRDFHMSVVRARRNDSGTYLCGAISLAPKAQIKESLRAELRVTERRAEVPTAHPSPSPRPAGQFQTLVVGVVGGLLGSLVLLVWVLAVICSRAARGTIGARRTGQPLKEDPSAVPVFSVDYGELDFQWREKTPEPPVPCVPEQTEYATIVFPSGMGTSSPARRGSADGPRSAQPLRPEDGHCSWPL
Assay: Jurkat-PD-1 Cell Binding High-Content Screening Assay (CBA)
Format: cell-based
Conditions: Jurkat cell line over-expressing human PD-1; PE-labeled PD-L1-Ig 20 nM final; read-out: Jurkat hPD1-PDL1 IC50
In short: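 Jurkat cells over-expressing human PD-1 (8×10^3 per well, DMEM/10% FCS) preincubated with compound 2 h at 37° C, then PE-labeled human PD-L1-Ig (20 nM final) added for 1 h. Cells fixed with paraformaldehyde, Hoechst-stained, and bound fluorescence quantified by high-content imaging.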

Row | IC50 [nM] | Structure (SMILES)
1 | 13.4 | Cc1cccc(C[C@@H]2NC(=O)[C@H](CC(=O)O)NC(=O)[C@H](Cc3ccc(OCC(=O)O)cc3)NC(=O)[C@H](CCCNC(=N)N)NC(=O)CSC[C@@H](C(=O)N[C@@H](CCCCN)C(=O)N[C@@H](CO)C(=O)NCCCCCCCCCCCC(=O)O)NC(=O)[C@H](CN)NC(=O)[C@H](C(C)C)NC(=O)[C@H](CC3CCCCC3)NC(=O)[C@H](CCN)NC(=O)[C@@H](CC(C)C)NC(=O)[C@H](CCCN)NC(=O)[C@H](C(C)C)NC(=O)[C@H](Cc3ccc(-c4ccccc4)cc3)NC(=O)[C@H](C(C)C)NC2=O)c1 [Compound 3535] ({CH2CO}-RY(Carboxymethyl)D[Phe(3-Me)]V[Bip]V[Orn][dL][Dab][Cha]V[Dap]CKS[12Ado]-OH; thioether N-14)
2 | 29.9 | Cc1cccc(C[C@@H]2NC(=O)[C@H](CC(=O)O)NC(=O)[C@H](Cc3ccc(OCC(=O)O)cc3)NC(=O)[C@H](CCCCNC(=N)N)NC(=O)CSC[C@@H](C(=O)N[C@@H](CCN)C(=O)N[C@@H](CO)C(=O)NCCCCCCCCCCCC(=O)O)NC(=O)[C@H](C(C)O)NC(=O)[C@H](C(C)O)NC(=O)[C@H](CC3CCCCC3)NC(=O)[C@H](CCN)NC(=O)[C@@H](CC(C)C)NC(=O)[C@H](CCCN)NC(=O)[C@H](CCCNC(=N)N)NC(=O)[C@H](Cc3ccc(-c4ccccc4)cc3)NC(=O)[C@H](C(C)C)NC2=O)c1 (stereo partly drawn) [Compound 3537] ({CH2CO}-[hArg]Y(Carboxymethyl)D[Phe(3-Me)]V[Bip]R[Orn][dL][Dab][Cha][Thr(3ξ)][Thr(3ξ)]C[Dab]S[12Ado]-OH; thioether N-14)
3 | 26.3 | CC(=O)NCCCC[C@@H]1NC(=O)CSC[C@@H](C(=O)N[C@@H](CCN)C(=O)NCCCCCCCCCCC(=O)O)NC(=O)[C@H](C(C)O)NC(=O)[C@H](C(C)C)NC(=O)[C@H](CC2CCCCC2)NC(=O)[C@H](CCN)NC(=O)[C@@H](CC(C)C)NC(=O)[C@H](CCCN)NC(=O)[C@H](CCCNC(N)=O)NC(=O)[C@H](Cc2ccc(-c3ccccc3)cc2)NC(=O)[C@H](C(C)C)NC(=O)[C@H](Cc2cccc(C)c2)NC(=O)[C@H](CC(=O)O)NC(=O)[C@H](Cc2ccc(OCC(=O)O)cc2)NC1=O (stereo partly drawn) [Compound 3538] ({CH2CO}-K(Ac)Y(Carboxymethyl)D[Phe(3-Me)]V[Bip][Cit][Orn][dL][Dab][Cha]V[Thr(3ξ)]C[Dab][Aun]-OH; thioether N-14)
4 | 39.9 | Cc1cccc(C[C@@H]2NC(=O)[C@H](CC(=O)O)NC(=O)[C@H](Cc3ccc(OCC(=O)O)cc3)NC(=O)[C@H](CCCCNC(=O)C(C)(C)C)NC(=O)CSC[C@@H](C(=O)N[C@@H](CCN)C(=O)NCCCCCCCCCCC(=O)O)NC(=O)[C@H](C(C)O)NC(=O)[C@H](C(C)C)NC(=O)[C@H](CC3CCCCC3)NC(=O)[C@H](CCN)NC(=O)[C@@H](CC(C)C)NC(=O)[C@H](CCCN)NC(=O)[C@H](CCCNC(N)=O)NC(=O)[C@H](Cc3ccc(-c4ccccc4)cc3)NC(=O)[C@H](C(C)C)NC2=O)c1 (stereo partly drawn) [Compound 3539] ({CH2CO}-K(Piv)Y(Carboxymethyl)D[Phe(3-Me)]V[Bip][Cit][Orn][dL][Dab][Cha]V[Thr(3ξ)]C[Dab][Aun]-OH; thioether N-14)
5 | 10 | CC(=O)NCCCC[C@@H]1NC(=O)[C@H](Cc2ccc(-c3ccccc3)cc2)NC(=O)[C@H](Cc2ccc(O)cc2)NC(=O)[C@H](Cc2cccc(C)c2)NC(=O)[C@H](CC(=O)O)NC(=O)[C@H](Cc2ccc(OCC(=O)O)cc2)NC(=O)[C@H](CCCNC(=N)N)NC(=O)CSC[C@@H](C(=O)N[C@H](CC(N)=O)C(=O)NCCCCCCCCCCC(=O)O)NC(=O)[C@H](C(C)O)NC(=O)[C@H](C(C)C)NC(=O)[C@H](CC2CCCCC2)NC(=O)[C@H](CCN)NC(=O)[C@@H](CC(C)C)NC(=O)[C@H](CCCNC(N)=O)NC1=O (stereo partly drawn) [Compound 3541] ({CH2CO}-RY(Carboxymethyl)D[Phe(3-Me)]Y[Bip]K(Ac)[Cit][dL][Dab][Cha]V[Thr(3ξ)]C[dN][Aun]-OH; thioether N-14)
6 | 38.2 | Cc1cccc(C[C@@H]2NC(=O)[C@H](CC(=O)O)NC(=O)[C@H](Cc3ccc(OCC(=O)O)cc3)NC(=O)[C@H](CCCNC(=N)N)NC(=O)CSC[C@@H](C(=O)N[C@H](CC(N)=O)C(=O)NCCCCCCCCCCC(=O)O)NC(=O)[C@H](C(C)O)NC(=O)[C@H](C(C)C)NC(=O)[C@H](CC3CCCCC3)NC(=O)[C@H](CCN)NC(=O)[C@@H](CC(C)C)NC(=O)[C@H](CCCNC(=N)N)NC(=O)[C@H](CCCCNC(=O)C(C)(C)C)NC(=O)[C@H](Cc3ccc(-c4ccccc4)cc3)NC(=O)[C@H](Cc3ccc(O)cc3)NC2=O)c1 (stereo partly drawn) [Compound 3542] ({CH2CO}-RY(Carboxymethyl)D[Phe(3-Me)]Y[Bip]K(Piv)R[dL][Dab][Cha]V[Thr(3ξ)]C[dN][Aun]-OH; thioether N-14)
7 | 13.3 | CC(=O)NCCCC[C@@H]1NC(=O)[C@H](Cc2ccc(-c3ccccc3)cc2)NC(=O)[C@H](Cc2ccc(O)cc2)NC(=O)[C@H](Cc2cccc(C)c2)NC(=O)[C@H](CC(=O)O)NC(=O)[C@H](Cc2ccc(OCC(=O)O)cc2)NC(=O)[C@H](CCCNC(=N)N)NC(=O)CSC[C@@H](C(=O)N[C@H](CC(N)=O)C(=O)NCCCCCCCCCCC(=O)O)NC(=O)[C@H](C(C)O)NC(=O)[C@H](C(C)C)NC(=O)[C@H](CC2CCCCC2)NC(=O)[C@H](CCN)NC(=O)[C@@H](CC(C)C)NC(=O)[C@H](CCC(N)=O)NC1=O (stereo partly drawn) [Compound 3543] ({CH2CO}-RY(Carboxymethyl)D[Phe(3-Me)]Y[Bip]K(Ac)Q[dL][Dab][Cha]V[Thr(3ξ)]C[dN][Aun]-OH; thioether N-14)
8 | 155 | Cc1cccc(C[C@@H]2NC(=O)[C@H](CC(=O)O)NC(=O)[C@H](Cc3ccc(OCC(=O)O)cc3)NC(=O)[C@H](CCCNC(=N)N)NC(=O)CSC[C@@H](C(=O)N[C@@H](CCN)C(=O)NCCCCCCCCCCC(=O)O)NC(=O)[C@H](Cc3ccsc3)NC(=O)[C@H](C(C)C)NC(=O)[C@H](CC3CCCCC3)NC(=O)[C@H](CCN)NC(=O)[C@@H](CC(C)C)NC(=O)[C@H](CCCN)NC(=O)[C@H](Cc3ccc(OCC(=O)O)cc3)NC(=O)[C@H](Cc3ccc(-c4ccccc4)cc3)NC(=O)[C@H](Cc3ccc(OCC(=O)O)cc3)NC2=O)c1 [Compound 3545] ({CH2CO}-RY(Carboxymethyl)D[Phe(3-Me)]Y(Carboxymethyl)[Bip]Y(Carboxymethyl)[Orn][dL][Dab][Cha]V[3Thi]C[Dab][Aun]-OH; thioether N-14)
9 | 74 | Cc1cccc(C[C@@H]2NC(=O)[C@H](CC(=O)O)NC(=O)[C@H](Cc3ccc(OCC(=O)O)cc3)NC(=O)[C@H](CCCCNC(=N)N)NC(=O)CSC[C@@H](C(=O)N[C@@H](CCCCN)C(=O)N[C@@H](CO)C(=O)NCCCCCCCCCCC(=O)O)NC(=O)[C@H](C(C)O)NC(=O)[C@H](C(C)O)NC(=O)[C@H](CC3CCCCC3)NC(=O)[C@H](CCN)NC(=O)[C@@H](CC(C)C)NC(=O)[C@H](CCCN)NC(=O)[C@H](CCCNC(=N)N)NC(=O)[C@H](Cc3ccc(-c4ccccc4)cc3)NC(=O)[C@H](C(C)C)NC2=O)c1 (stereo partly drawn) [Compound 3547] ({CH2CO}-[hArg]Y(Carboxymethyl)D[Phe(3-Me)]V[Bip]R[Orn][dL][Dab][Cha][Thr(3ξ)][Thr(3ξ)]CKS[Aun]-OH; thioether N-14)
